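48-hour exposure; five concentrations; linearly interpolated endpoints. Abbreviation: GI50, concentration required for 50% inhibition of growth. TGI: concentration producing complete growth inhibition.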

13 compounds from PubChem BioAssay (NCI) can be followed below.

Some test systems named below: SF-539 CNS; HOP-62 NSCLC; SK-MEL-5 melanoma; COLO 205 colon; MOLT-4 leukemia; UACC-62 melanoma; SK-MEL-2 melanoma; IGROV1 ovarian; HCT-15 colon; M14 melanoma.
Holding throughout (test): NCI anticancer screen, dose series, 48 h

As to `COC(C)(C)OCCN1CCN(CCN2C3=C(C=C(C(C)=O)C3)Sc3ccccc32)CC1`, the TGI in the assay with SF-539 CNS is 39.8 µM; in the assay with HOP-62 NSCLC, 36.2 µM; with SK-MEL-5 melanoma it was 32 µM; with COLO 205 colon it was 33.4 µM; with MOLT-4 leukemia, 36.7 µM; in the assay with UACC-62 melanoma, 29.4 µM. Further, the TGI in the assay with SK-MEL-2 melanoma was found to be 41.4 µM; in the assay with IGROV1 ovarian, 35.5 µM; in the assay on HCT-15 colon, 40.9 µM; in the assay on M14 melanoma, 40.4 µM.

In the case of `Cc1cc2c(cc1C(=O)c1ccc(N)cc1)OCO2`, the TGI in the assay with SF-539 CNS was 79.7 µM; in the assay on HOP-62 NSCLC it was > 100 µM; in the assay on SK-MEL-5 melanoma, 61.4 µM; in the assay with COLO 205 colon, 41.5 µM; in the assay with MOLT-4 leukemia, > 100 µM; with UACC-62 melanoma it was > 100 µM. The TGI in the assay on SK-MEL-2 melanoma is 74 µM; in the assay on IGROV1 ovarian it was > 100 µM; with HCT-15 colon, > 100 µM; in the assay on M14 melanoma it was > 100 µM.

For `CC(C)(C)[Si](C)(C)Oc1ccc(C2CNC(=O)C23CCC(=O)N3Cc2ccccc2)cc1` (stereo not given), the TGI is 30.7 µM in the assay on SF-539 CNS; 53.3 µM in the assay with HOP-62 NSCLC; 19.6 µM in the assay with SK-MEL-5 melanoma; 25.3 µM in the assay on COLO 205 colon; > 100 µM with MOLT-4 leukemia; 32 µM in the assay with UACC-62 melanoma. In addition, the TGI with SK-MEL-2 melanoma was determined as 35.5 µM; in the assay with IGROV1 ovarian, 31.6 µM; in the assay on HCT-15 colon it was 30 µM; in the assay on M14 melanoma it was 35 µM.

With `Oc1cn(-c2ccc(Cl)cc2)nc1-c1n[nH]c(=S)n1-c1ccccc1`, the TGI was 23.1 µM with SF-539 CNS; 22.7 µM in the assay on HOP-62 NSCLC; 15.4 µM in the assay with SK-MEL-5 melanoma; 54.9 µM with COLO 205 colon; > 100 µM in the assay with MOLT-4 leukemia; 28 µM with UACC-62 melanoma. In addition, the TGI is 52.7 µM in the assay with SK-MEL-2 melanoma, 22.2 µM in the assay with IGROV1 ovarian, 14.9 µM with HCT-15 colon and 20.4 µM in the assay with M14 melanoma.

As for `C[C@H]1C(=O)O[C@@H]2CCN3CC=C(COC(=O)[C@](C)(O)[C@@]1(C)O)[C@H]23`, the TGI in the assay on SF-539 CNS, in the assay with HOP-62 NSCLC, in the assay with SK-MEL-5 melanoma, in the assay with COLO 205 colon, in the assay on MOLT-4 leukemia and in the assay on UACC-62 melanoma was > 100 µM in each case. Further, the TGI with SK-MEL-2 melanoma, in the assay with IGROV1 ovarian, with HCT-15 colon and in the assay on M14 melanoma was > 100 µM throughout.

Take `Cc1c2cccc-2c(OCCO)cc2c3ccccc3n(C)c12`: the TGI was 5.92 µM with SF-539 CNS; 16.1 µM in the assay on HOP-62 NSCLC; 5.77 µM with SK-MEL-5 melanoma; 3.24 µM in the assay on COLO 205 colon; 34.6 µM in the assay on MOLT-4 leukemia; 17.5 µM with UACC-62 melanoma. Besides, the TGI was 12.8 µM in the assay on SK-MEL-2 melanoma, 7.77 µM with IGROV1 ovarian, 45 µM in the assay on HCT-15 colon and 12.2 µM in the assay on M14 melanoma.

`CN(C)C(=O)/C=C/c1c[nH]c(=O)[nH]c1=O`: the TGI with SF-539 CNS, in the assay on HOP-62 NSCLC, in the assay with SK-MEL-5 melanoma, with COLO 205 colon, with MOLT-4 leukemia and in the assay on UACC-62 melanoma was > 500 µM each time. In addition, the TGI with SK-MEL-2 melanoma, in the assay on IGROV1 ovarian and in the assay with HCT-15 colon was > 500 µM each time.

Regarding `CC(=O)NNc1nc(-c2ccc([N+](=O)[O-])cc2)c(C#N)c(=O)n1C`, the TGI is 35.1 µM in the assay with SF-539 CNS; 52.5 µM in the assay on HOP-62 NSCLC; > 100 µM with SK-MEL-5 melanoma; > 100 µM with COLO 205 colon; > 100 µM in the assay with MOLT-4 leukemia; > 100 µM in the assay on UACC-62 melanoma. The TGI in the assay on SK-MEL-2 melanoma was > 100 µM; in the assay with IGROV1 ovarian, 35 µM; in the assay on HCT-15 colon, > 100 µM; in the assay with M14 melanoma, > 100 µM.

For the compound `NCCCn1c2c(c3ccc([N+](=O)[O-])cc3c1=O)C(=O)c1ccccc1-2`, the GI50 is 0.138 µM in the assay on SF-539 CNS; 0.0956 µM in the assay on SK-MEL-5 melanoma; 0.33 µM in the assay on COLO 205 colon; 0.114 µM in the assay on MOLT-4 leukemia; 0.102 µM with UACC-62 melanoma; 1.6 µM in the assay on SK-MEL-2 melanoma. In addition, the GI50 is 0.215 µM in the assay with IGROV1 ovarian, 0.029 µM in the assay on HCT-15 colon and 0.161 µM in the assay with M14 melanoma. In addition, the TGI was 0.596 µM in the assay with SF-539 CNS; 0.479 µM in the assay with SK-MEL-5 melanoma; 3.82 µM in the assay with COLO 205 colon; > 50 µM with MOLT-4 leukemia; 0.431 µM in the assay with UACC-62 melanoma; > 50 µM in the assay on SK-MEL-2 melanoma. For the same compound, the TGI with IGROV1 ovarian is > 50 µM; in the assay with HCT-15 colon, 0.81 µM; in the assay on M14 melanoma, 1.06 µM.

`COc1ccc2c(c1)CCCN2CCCCCCCCCCN(CCC(C)C)CCC(C)C`: the TGI was determined as 11.1 µM in the assay with SF-539 CNS; 26.1 µM with HOP-62 NSCLC; 18.9 µM in the assay with SK-MEL-5 melanoma; 26.6 µM in the assay with COLO 205 colon; 22.6 µM with MOLT-4 leukemia; 27.1 µM in the assay with UACC-62 melanoma. The TGI in the assay on SK-MEL-2 melanoma was 22.8 µM; in the assay on IGROV1 ovarian, 27.7 µM; in the assay with HCT-15 colon, 23.4 µM; with M14 melanoma it was 27.2 µM.

As for `O=C(Nc1ccc([N+](=O)[O-])cc1[N+](=O)[O-])C(=O)C(C(=O)c1ccc2ccccc2c1)C1OC(=O)c2ccccc21` (stereo not given), the TGI was determined as 18.6 µM in the assay on SF-539 CNS; 68.4 µM in the assay on HOP-62 NSCLC; 31.6 µM with SK-MEL-5 melanoma; 35 µM with COLO 205 colon; 62.2 µM with MOLT-4 leukemia; 30.2 µM in the assay on UACC-62 melanoma. In addition, the TGI in the assay on SK-MEL-2 melanoma was 43.4 µM; in the assay on IGROV1 ovarian, 43.5 µM; in the assay with HCT-15 colon, 30.7 µM; in the assay with M14 melanoma it was 30.3 µM.

Turning to `Nc1n[nH]c(=O)c2c1c(I)cn2C1OC(CO)C(O)C1O` (stereo not given), the TGI worked out at 21.5 µM with HOP-62 NSCLC; 13.6 µM with SK-MEL-5 melanoma; 7.81 µM in the assay on COLO 205 colon; 2.29 µM with MOLT-4 leukemia; 13.3 µM in the assay on UACC-62 melanoma; 0.049 µM in the assay with SK-MEL-2 melanoma. In addition, the TGI in the assay on IGROV1 ovarian is > 100 µM; in the assay on HCT-15 colon, 3.05 µM; in the assay on M14 melanoma it was 18.8 µM.

On to `CN(C)CCNC(=O)c1cccc2ccc(-c3ccc(F)cc3)nc12`, for which the TGI was 14.9 µM in the assay on SF-539 CNS; 27.8 µM in the assay with HOP-62 NSCLC; 11.1 µM in the assay on SK-MEL-5 melanoma; 10.9 µM in the assay on COLO 205 colon; 7.03 µM in the assay on MOLT-4 leukemia; 13.4 µM in the assay with UACC-62 melanoma. Besides, the figures for the TGI in the assay with SK-MEL-2 melanoma, in the assay with IGROV1 ovarian and in the assay with HCT-15 colon were 21.3 µM, 20.3 µM and 16.1 µM, respectively.
